In patent publication US7416741B2, “Copper lowering treatment of inflammatory and fibrotic diseases” (The Regents of the University of Michigan, priority 2002, dated 2008):
Read-outs that look alike come from different tables or passages of the source.

Experiments:
[1] = test system: rats; conditions: cited from earlier work
[2] = test system: bleomycin mouse model of pulmonary fibrosis; assay: Lung hydroxyproline assay in the bleomycin mouse model of pulmonary fibrosis; type: in vivo; conditions: for Hydroxyproline: sacrifice day 21
Description: In the bleomycin mouse model, which is known to be dependent upon the TGFβ pathway, the intratracheal administration of bleomycin leads to the development of severe lung inflammation followed by fibrosis in 2-3 weeks, at which time the mice are sacrificed. Fibrosis is quantified in lung tissue by measuring hydroxyproline, a key component of the collagen that is deposited in fibrotic lung.
(§1) Mice. Female CBA/J mice at 8-10 weeks of age were from the Jackson Laboratories (Bar Harbor, Me.). These mice weighed an average of 21.4 g at the start of experiments, with a standard deviation of 1.7 g.
(§2) Bleomycin treatment. This was undertaken on day 0 by endotracheal instillation through the oral cavity after exposure of the airway by pulling the tongue. Each mouse received 0.001 units of bleomycin (Bristol-Myers, Evansville, Ind.)/gm body weight in 30 μl of sterile saline, while control mice received an equal volume of sterile saline only.
(§3) TM treatment experiments. TM was given in 0.25 ml of water by intragastric gavage once daily, in the doses and times indicated in the various studies as described below.
Hydroxyproline assay. The extent of fibrosis was assessed by assaying hydroxyproline content of whole lung homogenates at the time of sacrifice as previously described (M Gharaee-Kermani et al., J. Leukoc. Biol., 64:657-666 [1998]). Results are expressed as μg hydroxyproline/lung (the lung tissue included both lungs).
Hydroxyproline assay. The extent of fibrosis was assessed by assaying hydroxyproline content of whole-lung homogenates at the time of sacrifice as described in Gharaee-Kermani, et al., J. Leukoc. Biol., 64:657-666 (1998). Hydroxyproline was expressed as micrograms of hydroxyproline per mouse lung (the lung tissue included both lungs).

[3] = test system: animal model of renal fibrosis; assay: Streptozotocin rat model of renal fibrosis; type: in vivo; conditions: Ex 7
Experimental: A study is carried out in an animal model of renal fibrosis. After kidney injury of almost any type, a diffuse interstitial fibrosis (believed to be due to over-activity of the TGFβ pathway) produces kidney failure. Rats are made diabetic by administering streptozotocin; renal fibrosis is typically well developed by 60 days after initiation of streptozotocin administration. TM therapy is initiated at varying times relative to streptozotocin administration in several groups of rats, and the results compared to control groups not receiving TM. Typically, at least three […] are present in each experimental group. In one group, TM therapy is initiated prior to streptozotocin administration, to determine whether TM therapy mitigates the pancreatic damage, as it mitigates hepatitis/cirrhosis in the concanavilin A mouse model described above. In other groups, TM is started after streptozotocin administration, at various times, to determine if it can mitigate the renal fibrosis that develops after streptozotocin administration.

[4] = Body weight and hematocrit in the bleomycin mouse model; type: in vivo; conditions: for Weight / Hematocrit: sacrifice day 21; for protection against weight loss from bleomycin: Ex 1 Exp 2; for mean hematocrit: day 21
Experimental: as §1, §2, §3
There were four experimental groups of five to seven mice each. Group 1 received bleomycin, group 2 was a saline control, group 3 received bleomycin and TM therapy, and group 4 was a TM therapy control. The TM was given in a dose of 0.7 mg/mouse/day beginning 7 days prior to bleomycin treatment. During days 9 to 11 after bleomycin, the TM-treated mice received 1.2 mg of TM daily, to ensure adequate lowering of copper levels, and then received 0.7 mg daily for the duration of the study. The mice were sacrificed 21 days after bleomycin treatment.
In this experiment, the effect of TM at different doses after bleomycin administration was examined. Experimental groups of four bleomycin-treated and two to four control (non-bleomycin treated) mice were given varying doses of TM. Initially, All TM-treated mice received identical loading doses of 1.2 mg/mouse/day for 3 days (minus 5 to minus 3 days) prior to bleomycin administration. From that point on, groups of mice were given 0.3, 0.5, 0.7, or 0.9 mg of TM/mouse/day until sacrifice at day 21 after bleomycin treatment. A group of four bleomycin treated and a group of four non-bleomycin treated mice received no TM.
Three experiments were carried out. Experiment 1 comprised four groups of three mice each. Group 1 received bleomycin only, group 2 received bleomycin and TM therapy, group 3 received saline in the trachea rather than bleomycin, and group 4 received TM therapy only. The mice in groups 2 and 4 each received 1.2 mg of TM per day for four days prior to bleomycin, and then were given 0.9 mg TM per day until sacrifice at seven days after bleomycin.
Experiment 2 comprised four groups of five mice each. The four groups were assigned as in experiment 1 to bleomycin, bleomycin and TM, saline rather than bleomycin, and TM only. Groups 2 and 4 were started on TM five days after bleomycin treatment at a dose of 1.2 mg per day for four days, and then 0.9 mg per day until sacrifice at day 21.

[5] = test system: Con A mouse model; assay: Liver histological examination in the Con A mouse model; type: in vivo; conditions: Ex 4; Con A mice
Experimental: A study was carried out in a mouse model of concanavilin A (Con A) production of liver cirrhosis. There were four experimental groups of several mice each. […] The Con A was injected intravenously once weekly into mice (0.3 mg/mouse/week), and produced a hepatitis, which is manifested by an increasing level of alanine transaminase (ALT) enzymes in the blood. The TM was given once daily by […] in a dose of 0.7 mg/mouse/day beginning 7 days prior to ConA treatment. During days 9 to 11 after Con A, the TM-treated mice received 1.2 mg of TM daily, to ensure adequate lowering of copper levels, and then received 0.7 mg daily for the duration of the study. A blood sample was obtained 28 days after ConA treatment, and the mice were sacrificed on the same day. Serum alanine transaminase (ALT) was measured in Sigma-Frankel (SF) units, where one unit is the formation of 0.000482 umoles of glutamate/minute at pH 7.5 and 25 ° C.

In the case of `[SH-].[SH-].[S]=[Mo]=[S]` [TM, tetrathiomolybdate], the “effects on copper levels (plasma ceruloplasmin, liver and kidney copper)” value ([1]; approximately 6 mg of TM per kilogram of diet) is listed as “substantial effects on copper levels”, the anemia ([1]; approximately 12 mg of TM per kilogram of diet) is listed as “Mild anemia” and the skeletal lesions ([1]; approximately 12 mg of TM) is listed as “one of six animals”. For the same molecule, the anemia ([1]; approximately 18 mg of TM) was “severe”, the growth rate ([1]; approximately 18 mg of TM) was “markedly impaired” and the skeletal lesions ([1]; approximately 18 mg of TM) was “all animals had skeletal lesions”. The Hydroxyproline ([2]; Ex 1 Exp 1, Bleomycin/TM group) was 162 ± 12 μg/lung, the “fibrosis as measured by hydroxyproline assay” value ([2]; Ex 1 Exp 1, TM before bleomycin) was “almost completely abrogated fibrosis” and the Hydroxyproline ([2]; Ex 1 Exp 1, TM only group) was 193 ± 5 μg/lung. For the same molecule, the “Hydroxyproline (Mean ± SE)” value ([2]; Ex 1 Exp 2, Bleomycin Group, 0.3 mg TM/mouse/day, day 21) was 232 ± 4 μg hydroxyproline/lung, the “Hydroxyproline (Mean ± SE)” value ([2]; Ex 1 Exp 2, Bleomycin Group, 0.5 mg TM/mouse/day, day 21) was 197 ± 15 μg hydroxyproline/lung and the “Hydroxyproline (Mean ± SE)” value ([2]; Ex 1 Exp 2, Bleomycin Group, 0.7 mg TM/mouse/day, day 21) was 172 ± 22 μg hydroxyproline/lung. For the same molecule, the “Hydroxyproline (Mean ± SE)” value ([2]; Ex 1 Exp 2, Bleomycin Group, 0.9 mg TM/mouse/day, day 21) was 157 ± 14 μg hydroxyproline/lung, the “Hydroxyproline (Mean ± SE)” value ([2]; Ex 1 Exp 2, Control Group (Saline only), 0.3 mg TM/mouse/day) was 132 ± 3 μg hydroxyproline/lung and the “Hydroxyproline (Mean ± SE)” value ([2]; Ex 1 Exp 2, Control Group (Saline only), 0.5 mg TM/mouse/day) was 130 ± 5 μg hydroxyproline/lung. For the same molecule, the “Hydroxyproline (Mean ± SE)” value ([2]; Ex 1 Exp 2, Control Group (Saline only), 0.7 mg TM/mouse/day) was 152 ± 10 μg hydroxyproline/lung, the “Hydroxyproline (Mean ± SE)” value ([2]; Ex 1 Exp 2, Control Group (Saline only), 0.9 mg TM/mouse/day) was 130 ± 8 μg hydroxyproline/lung and the “protection against bleomycin-induced fibrosis as measured by hydroxyproline accumulation” value ([2]; Ex 1 Exp 2, TM 0.3 to 0.9 mg) was “dose dependent”. The “effect of TM treatment alone on hydroxyproline levels” value ([2]; Ex 1 Exp 2, no bleomycin) was “no effect of TM treatment alone on hydroxyproline levels”, the hydroxyproline production ([2]; Ex 1 Exp 3, TM given before bleomycin or started at day 4 or 7 after, 1.2 then 0.9 mg/mouse/day) was “significant suppression of hydroxyproline production” and the “effect of TM alone on hydroxyproline levels” value ([2]; Ex 1 Exp 3, no bleomycin) was “no effect of TM alone on hydroxyproline levels”. The “lung hydroxyproline levels, bleomycin-induced increase” value ([2]; Ex 2 Exp 2, TM from day 5, day 21) was “completely and significantly inhibited the increase”, the renal fibrosis ([3]; TM after diabetes is induced) was “mitigates the renal fibrosis” and the pancreatic damage ([3]; TM before streptozotocin) was “mitigates pancreatic damage”. For the same molecule, the Weight ([4]; Ex 1 Exp 1, Bleomycin/TM group, TM 0.7 mg/mouse/day gavage from 7 days before bleomycin) was 21.2 ± 0.8 g, the Hematocrit ([4]; Ex 1 Exp 1, Bleomycin/TM group) was 39.7 ± 2.6 and the “effect of TM alone on weight” value ([4]; Ex 1 Exp 1, TM alone (group 4)) was “tended to produce some weight loss”. For the same molecule, the Weight ([4]; Ex 1 Exp 1, TM only group (no bleomycin), 0.7 mg/mouse/day) was 20.4 ± 1.0 g, the Hematocrit ([4]; Ex 1 Exp 1, TM only group) was 44.1 ± 1.0 and the “protection against bleomycin induced weight loss” value ([4]; Ex 1 Exp 1, bleomycin/TM group) was “protected against some of the bleomycin induced weight loss”. The “protection against weight loss from bleomycin” value (“protection against weight loss” below) ([4]; 0.3 mg TM dose) was “only slightly protective”, the “protection against weight loss” value ([4]; 0.5 mg TM dose) was “intermediately protective” and the “protection against weight loss” value ([4]; 0.7 mg TM dose) was “intermediately protective”. The “protection against weight loss” value ([4]; 0.9 mg TM dose) was “fully protective”, the “mean weight in the bleomycin/TM group” value ([4]; Ex 2 Exp 1, sacrifice day 7) was “almost exactly the same as the saline control group” and the mean hematocrit ([4]; Ex 2 Exp 2, TM group) was 43.8%. The “mean weight at the time of sacrifice” value ([4]; Ex 2 Exp 2, bleomycin/TM group, TM started 5 days after bleomycin) was 19.6 g, the mean hematocrit ([4]; Ex 2 Exp 2, bleomycin/TM group) was 44.3% and the “histological examination: inflammation and early bridging fibrosis” value [5] was “not in the TM treated animals”.
